According to paper PMC12281142, “A potent phenylalkylamine disrupts mycobacterial membrane bioenergetics and augments bactericidal activity of bedaquiline” (iScience, 2025):
In brackets after ≈: the same amount, converted by molar mass. Several values for one entry are separate records, joined by “and”; a condition that tells them apart may be missing. Equal entries are not always repeated. Where two headings read alike, the source gives them in different places.

Experiments:
[1] = tested on: M. bovis BCG; test: microbe, parasite or virus in culture; assay type: cell-based, Mycobacterium bovis BCG
[2] = tested on: Mtb H37Rv; test: MIC by broth microdilution against Mtb H37Rv; assay type: cell-based, Mycobacterium tuberculosis; conditions: Mycobacterium tuberculosis, H37RV, 120 h
[3] = tested on: Mab abscessus ATCC 19977; test: MIC against Mab abscessus ATCC 19977; assay type: cell-based, Mycobacterium abscessus subsp. abscessus; conditions: Mycobacteroides abscessus; for MIC50: ATCC19977, 72 h, 3 days
[4] = tested on: Mab massiliense CCUG 48898-T; test: MIC against Mab massiliense CCUG 48898-T; assay type: cell-based, Mycobacterium abscessus subsp. massiliense; conditions: Mycobacteroides abscessus; for MIC50: CCUG48898, 72 h, 3 days
[5] = tested on: Mab bolletii CCUG 50184-T; test: MIC against Mab bolletii CCUG 50184-T; assay type: cell-based, Mycobacterium abscessus subsp. bolletii; conditions: Mycobacteroides abscessus; for MIC50: CCUG50184, 72 h, 3 days
[6] = tested on: Vero E6; test: Cytotoxicity in Vero E6 cells; assay type: cell-based, African green monkey; conditions: growth suppressed by 50% vs untreated
Outline: (§1)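 Cells seeded at 50,000/well, allowed to adhere overnight in DMEM at 37 °C/5% CO2, then exposed 48 h to compound at a final 0.5% v/v DMSO. Viability read by MTS-type reagent (3 h, absorbance 490 nm), corrected for compound and vehicle blanks, and normalized to untreated cells. IC50 from sigmoidal fit of viability versus log concentration, at least 3 determinations.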

[7] = tested on: HepG2; test: Cytotoxicity in HepG2 cells; assay type: cell-based, human; conditions: Homo sapiens, HepG2; 48 h, growth suppressed by 50% vs untreated
Outline: as §1

[8] = tested on: clinical isolates of Mab; test: MIC50 against Mab clinical isolates; assay type: cell-based, Mycobacterium abscessus; conditions: Mycobacteroides abscessus
[9] = tested on: M. smegmatis mc2155; test: MIC against M. smegmatis mc2155; assay type: cell-based, Mycobacterium smegmatis; conditions: Mycolicibacterium smegmatis
[10] = tested on: M. bovis BCG; assay type: cell-based, Mycobacterium bovis BCG; conditions: exponential phase M. bovis BCG, 5 days
[11] = tested on: M. bovis BCG; assay type: cell-based, Mycobacterium bovis BCG; conditions: 2xMIC90BCG
[12] = tested on: nonreplicating M. bovis BCG; assay type: cell-based, Mycobacterium bovis BCG; conditions: 5 days, Wayne model
[13] = tested on: M. bovis BCG; assay type: cell-based, Mycobacterium bovis BCG; conditions: 2x MIC90BCG, 6 h time point, cultures still viable
[14] = tested on: M. bovis BCG-pclgR-RFP; assay type: cell-based, Mycobacterium bovis BCG; conditions: 0.25x – 2x MIC90 (controls 10 μM), 24 h
[15] = tested on: M. bovis BCG; assay type: cell-based, Mycobacterium bovis BCG; conditions: 0.5x to 4x MIC90BCG
[16] = tested on: M. bovis BCG; assay type: cell-based, Mycobacterium bovis BCG; conditions: PhA2 2x–4x MIC90BCG, TDZ 80 μM, 24 h
[17] = tested on: M. bovis BCG; assay type: cell-based, Mycobacterium bovis BCG; conditions: 24 h
[18] = tested on: M. bovis BCG; assay type: cell-based, Mycobacterium bovis BCG; conditions: 2x MIC90 (19 μg/mL)
[19] = tested on: M. bovis BCG; assay type: cell-based, Mycobacterium bovis BCG; conditions: luminescence normalized against CFU
[20] = tested on: M. bovis BCG; conditions: 2x MIC90 over 24 h
[21] = tested on: cat papillary muscle; conditions: cited from earlier work
[22] = 7H9 medium (first value of cell)
[23] = CA-MHB medium (second value of cell)

CCCCCCCCC(C#N)(CCCN(C)CCc1ccc(OC)c(OC)c1)c1ccc(OC)c(OC)c1 (centres unmarked) [PhA2]
MIC90 BCG ([1]; M. bovis BCG): 9 µg/mL (≈ 17.2 µM)
MIC50 ([1]; M. bovis BCG, broth dilution, growth reduced by 50% vs untreated): 10 µM (≈ 5.25 µg/mL)
MIC50 ([1]; Mycobacterium tuberculosis variant bovis BCG, BCG, 120 h, read-out: MIC50 BCG With Glycerol, 7H9 broth with glycerol, 5 days): 10 µM (≈ 5.25 µg/mL)
MIC50 ([1]; Mycobacterium tuberculosis variant bovis BCG, BCG, 120 h, read-out: MIC50 BCG Without Glycerol, 7H9 broth without glycerol, 5 days): 22 µM (≈ 11.5 µg/mL)
MIC50 ([1]; Mycobacterium tuberculosis variant bovis BCG, BCG, M. bovis BCG, broth dilution, growth reduced by 50% vs untreated): 10 to 16 µM (≈ 5.25 to 8.4 µg/mL)
MIC90 ([1]; Mycobacterium tuberculosis variant bovis BCG, BCG, M. bovis BCG, broth dilution, growth reduced by 90% vs untreated): 18 µM
MIC50 ([1]; Mycobacterium tuberculosis variant bovis BCG, BCG, read-out: M. bovis BCG MIC50 (Table S4)): 10 µM (≈ 5.25 µg/mL)
MIC90 ([1]; Mycobacterium tuberculosis variant bovis BCG, BCG, read-out: M. bovis BCG MIC90 (Table S4)): 18 µM
MIC90 ([1]; Mycobacterium tuberculosis variant bovis BCG, BCG, read-out: MIC90 (Table S1), M. bovis BCG, broth dilution): 18 µM
MIC90 ([1]; Mycobacterium tuberculosis variant bovis BCG, BCG, read-out: MIC90 BCG, M. bovis BCG): 9.4 µg/mL
MIC50 ([2]; read-out: MIC50 Mtb H37Rv): 17 µM (≈ 8.92 µg/mL)
MIC90 ([2]; second value of cell MIC50/MIC90, incubation 5 days, read-out: MIC90 Mtb H37Rv): 25 µM (≈ 13.1 µg/mL)
MIC90 ([3]; ATCC19977, 7H9 broth (first value), read-out: MIC90 Mab abscessus ATCC 19977): 85 µM (≈ 44.6 µg/mL)
MIC50 [3, 22]: 54 µM (≈ 28.3 µg/mL)
MIC50 [3, 23]: 19 µM (≈ 9.97 µg/mL)
MIC90 ([3]; ATCC19977, Mab abscessus, read-out: MIC90 abscessus): 85 µM and 45 µg/mL
MIC90 ([3]; ATCC19977, camH broth (second value), read-out: MIC90 Mab abscessus ATCC 19977): 26 µM (≈ 13.6 µg/mL)
MIC90 ([4]; CCUG48898, 7H9 broth (first value)): 91 µM (≈ 47.8 µg/mL)
MIC50 [4, 22]: 61 µM (≈ 32 µg/mL)
MIC50 [4, 23]: 11 µM (≈ 5.77 µg/mL)
MIC90 ([4]; CCUG48898, camH broth (second value)): 28 µM (≈ 14.7 µg/mL)
MIC90 ([5]; CCUG50184, 7H9 broth (first value)): 95 µM (≈ 49.9 µg/mL)
MIC50 [5, 22]: 62 µM (≈ 32.5 µg/mL)
MIC50 [5, 23]: 16 µM (≈ 8.4 µg/mL)
MIC90 ([5]; CCUG50184, camH broth (second value)): 27 µM (≈ 14.2 µg/mL)
IC50 ([6]; 48 h): 28 µM
IC50 ([6]; Chlorocebus sabaeus, Vero C1008, 48 h): 28 to 29 µM
IC50 [7]: 29 µM
MIC50 ([8]; read-out: MIC50 seven Mab clinical isolates): 22 to 39 µM
MIC50 ([8]; Mab clinical isolate M9, 7H9 broth, read-out: MIC50 M9): 26.5 µM
MIC50 ([8]; Mab clinical isolate M111, 7H9 broth, read-out: MIC50 M111): 24 µM
MIC50 ([8]; Mab clinical isolate M232, 7H9 broth, read-out: MIC50 M232): 22 µM
MIC50 ([8]; Mab clinical isolate M337, 7H9 broth, read-out: MIC50 M337): 25 µM
MIC50 ([8]; Mab clinical isolate M404, 7H9 broth, read-out: MIC50 M404): 26.5 µM
MIC50 ([8]; Mab clinical isolate M422, 7H9 broth, read-out: MIC50 M422): 23 µM
MIC50 ([8]; Mab clinical isolate M506, 7H9 broth, read-out: MIC50 M506): 23.5 µM
MIC50 ([8]; range over isolates, read-out: MIC50 seven Mab clinical isolates): 12 to 21 µg/mL
MIC50 ([9]; MC2155, 24 h, incubation 1 day, read-out: M. smegmatis mc2155 MIC50 (Table S4)): 41 µM (≈ 21.5 µg/mL)
MIC90 ([9]; MC2155, 24 h, incubation 1 day, read-out: M. smegmatis mc2155 MIC90 (Table S4)): 58 µM (≈ 30.4 µg/mL)
MIC90 ([9]; MC2155, read-out: MIC90 M. smegmatis): 52.5 µM (≈ 27.5 µg/mL)
MBC99.9 (10^3-fold kill) [10]: 2 x MIC90
reduction of CFUs ([11]; 21-day time point): 10^5 fold
regrowth in time-kill curve ([11]; 21 days): no rebound in growth
kill of hypoxic M. bovis BCG ([12]; 2x MIC90BCG): resisted killing
kill of hypoxic M. bovis BCG ([12]; 4x MIC90BCG): 10^3 fold
membrane depolarization [13]: depolarization was evident
induction of pclgR promoter activity [14]: induced promoter activity in a dose dependent manner
formazan formation from MTS [15]: dose dependent reduction in formazan
NADH/NAD+ ratio [16]: higher ratios
methylene blue decolorization (O2 uptake) ([17]; 0.5x and 1x MIC90BCG): Decolorization (active O2 uptake)
methylene blue decolorization (O2 uptake) ([17]; 2x and 4x MIC90BCG): No decolorization
oxygen consumption rate [18]: uptake was reduced to the basal level
ATP level ([19]; 2x MIC90, 12 h): 73%
ATP level ([19]; 2x MIC90, 48 h): 27%
membrane permeabilization [20]: induced membrane permeabilization
ED50 (concentration to reduce maximal contractility of the papillary muscle by 50%) [21]: 130 µM
